Test results taken from the supplement of paper PMC10331698.
± gives the standard deviation of the averaged measurements.

Legend:
Test in all cases: level (log10 ratio to DMSO vehicle control); higher = higher biomarker level / cell amount than vehicle control
Details in all cases: in DMSO
[1] = compound: C=C(C)C(=O)OCCC(F)(F)C(F)(F)C(F)(F)C(F)(F)C(F)(C(F)(F)F)C(F)(F)F [(Perfluoro-5-methylhexyl)ethyl 2-methylprop-2-enoate]
Experimental: (§1)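 BioMAP Diversity Plus panel of 12 human primary cell co-culture systems (3C, 4H, LPS, SAg, BT, BF4T, BE3C, CASM3C, HDF3CGF, KF3CT, MyoF, Mphg). Compounds were added 1 h before stimulation and left for 24 h (MyoF 48 h; BT 72 h for soluble read-outs or 6 d for IgG). Biomarkers were read by ELISA, cytotoxicity by SRB, PBMC viability and proliferation by Alamar Blue. Each well value was divided by the mean of 8 DMSO control wells on the same plate and log10 transformed; duplicate blinded samples were tested at 4 concentrations.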

Pentafluoropropionamide = compound: NC(=O)C(F)(F)C(F)(F)F [Pentafluoropropionamide]
Experimental: as §1

Perfluoropropanoic acid = compound: O=C(O)C(F)(F)C(F)(F)F [Perfluoropropanoic acid]
Experimental: as §1

[2] = compound: FC(F)(F)C(F)(F)C(F)(F)C(F)(F)C(F)(F)CCI [1-Iodo-1H,1H,2H,2H-perfluoroheptane]
Experimental: as §1

[3] = compound: FC(F)C(F)(F)COCC1CO1 [((2,2,3,3-Tetrafluoropropoxy)methyl)oxirane]
Experimental: as §1

[4] = compound: C=CC(F)(F)C(F)(F)C(F)(F)C(F)(F)C(F)(F)C(F)(F)C(F)(F)C(F)(F)C=C [1,8-Divinylperfluorooctane]
Experimental: as §1

Test System	level (log10) ([1]; 6700 nM)	level (log10) ([1]; 20000 nM)	level (log10) (Pentafluoropropionamide; 6700 nM)	level (log10) (Pentafluoropropionamide; 20000 nM)	level (log10) (Pentafluoropropionamide; 60000 nM)	level (log10) (Perfluoropropanoic acid; 6700 nM)	level (log10) (Perfluoropropanoic acid; 20000 nM)	level (log10) (Perfluoropropanoic acid; 60000 nM)	level (log10) ([2]; 6700 nM)	level (log10) ([2]; 20000 nM)	level (log10) ([2]; 60000 nM)	level (log10) ([3]; 6700 nM)	level (log10) ([3]; 20000 nM)	level (log10) ([3]; 60000 nM)	level (log10) ([4]; 6700 nM)	level (log10) ([4]; 20000 nM)
BT:sIL-6	-0.0095 ± 0.025	0.0305 ± 0.073	0.055 ± 0.027	0.017 ± 0.023	-0.0095 ± 0.052	0.021 ± 0.023	-0.0015 ± 0.0035	0.035 ± 0.024	-0.0395 ± 0.043	0.0425 ± 0.033	-0.077 ± 0.0099	0.054 ± 0.051	0.0155 ± 0.0064	-0.0365 ± 0.005	0.039 ± 0.016	0.0415 ± 0.071
BF4T:CCL2/MCP-1	0.012 ± 0.011	0.0275 ± 0.005	-0.0075 ± 0.0035	-0.0195 ± 0.00071	0.001 ± 0.025	-0.0125 ± 0.011	-0.0095 ± 0.005	0.061 ± 0.083	-0.008 ± 0.025	-0.044 ± 0.044	-0.055 ± 0.02	-0.0155 ± 0.019	-0.0095 ± 0.013	0.011 ± 0.044	-0.007 ± 0.0028	0.014 ± 0.047
3C:CXCL9/MIG	-0.001 ± 0.011	0.0045 ± 0.0035	-0.0025 ± 0.0078	-0.011 ± 0.0071	0.0085 ± 0.012	-0.0005 ± 0.012	0.0025 ± 0.0064	0.0075 ± 0.019	-0.0035 ± 0.005	-0.011 ± 0.0028	-0.0075 ± 0.0064	0.0045 ± 0.013	-0.0065 ± 0.016	-0.0035 ± 0.0078	-0.0085 ± 0.0064	0.0025 ± 0.0092
BE3C:CXCL9/MIG	0.009 ± 0.013	0.008 ± 0.0071	0.004 ± 0.0028	-0.0015 ± 0.011	0.0075 ± 0.0035	-0.0005 ± 0.016	0.0035 ± 0.0078	0.0165 ± 0.023	-0.001 ± 0.0014	-0.008 ± 0.0042	-0.008 ± 0.013	0 ± 0.0042	-0.0115 ± 0.0092	0.003 ± 0.02	-0.001 ± 0.0014	-0.005 ± 0.0028
BF4T:MMP-9	-0.036 ± 0.05	-0.007 ± 0.038	0.02 ± 0.024	-0.001 ± 0.021	0.027 ± 0.0042	-0.0065 ± 0.036	-0.0065 ± 0.037	0.0035 ± 0.032	0.01 ± 0.0014	0.03 ± 0.0014	0.065 ± 0.017	0.0055 ± 0.005	-0.01 ± 0.0042	0.0065 ± 0.013	-0.004 ± 0.071	-0.0115 ± 0.033
4H:CD87/uPAR	0.0115 ± 0.037	0 ± 0.0071	0.009 ± 0.02	-0.0185 ± 0.00071	-0.009 ± 0.0099	-0.0325 ± 0.025	-0.014 ± 0.011	0.0085 ± 0.016	0.0265 ± 0.018	0.0175 ± 0.005	0.025 ± 0.03	-0.013	-0.0205 ± 0.03	-0.012 ± 0.0042	-0.0125 ± 0.015	0.0215 ± 0.0064
SAg:SRB	-0.001 ± 0.0042	-0.0105 ± 0.0078	-0.0005 ± 0.016	-0.0055 ± 0.0092	-0.01 ± 0.014	-0.01 ± 0.0028	-0.014 ± 0.0042	-0.0035 ± 0.00071	0.0065 ± 0.011	0.0015 ± 0.016	-0.001 ± 0.0085	-0.007 ± 0.0057	-0.0075 ± 0.0064	-0.005 ± 0.014	-0.0005 ± 0.0021	0.0135 ± 0.0021
LPS:CCL2/MCP-1	0.009 ± 0.021	0.0115 ± 0.028	-0.0035 ± 0.011	-0.017 ± 0.0028	0.008 ± 0.04	-0.011 ± 0.014	-0.008 ± 0.031	0.019 ± 0.068	-0.013 ± 0.013	-0.013 ± 0.021	-0.0045 ± 0.021	0.006 ± 0.0085	-0.007 ± 0.0099	0.01 ± 0.013	0.0065 ± 0.021	0.0145 ± 0.029
BT:sIL-17F	0.004 ± 0.15	-0.0015 ± 0.0092	-0.02 ± 0.085	-0.03	0.0275 ± 0.0064	0.0335 ± 0.0035	0.0335 ± 0.023	-0.0045 ± 0.052	-0.0855 ± 0.011	0.0525 ± 0.033	-0.0455 ± 0.16	-0.0295 ± 0.12	0.001 ± 0.13	0.0005 ± 0.061	0.012 ± 0.037	0.051 ± 0.0057
3C:HLA-DR	-0.004 ± 0.016	-0.023 ± 0.02	-0.0255 ± 0.029	-0.0165 ± 0.013	-0.0125 ± 0.00071	-0.003 ± 0.0028	0.0035 ± 0.0035	0.011 ± 0.011	-0.001 ± 0.016	0.006 ± 0.0042	-0.0035 ± 0.0064	0.012 ± 0.0085	0.013 ± 0.021	0.0235 ± 0.043	-0.0185 ± 0.028	-0.007 ± 0.013
SAg:CXCL9/MIG	0.002 ± 0.0085	0.015 ± 0.0042	-0.0145 ± 0.0021	-0.017 ± 0.0014	0.009 ± 0.014	-0.0015 ± 0.0078	0.012 ± 0.0057	0.0025 ± 0.022	-0.005 ± 0.013	-0.0145 ± 0.0092	0.0005 ± 0.012	-0.002 ± 0.011	-0.006 ± 0.014	0.0065 ± 0.0092	-0.0115 ± 0.0092	0.0055 ± 0.018
LPS:CD142/Tissue Factor	0.032 ± 0.014	0.006 ± 0.014	0.0095 ± 0.015	-0.022 ± 0.034	-0.0425 ± 0.046	0.001 ± 0.0028	0.0055 ± 0.028	0.0235 ± 0.0078	0.0045 ± 0.018	0.0285 ± 0.016	0.038 ± 0.0085	0.013 ± 0.024	0.006 ± 0.0057	-0.019 ± 0.023	-0.035 ± 0.035	-0.043 ± 0.057
LPS:CD40	0.07 ± 0.038	-0.0015 ± 0.016	-0.0315 ± 0.047	-0.04 ± 0.013	-0.025 ± 0.02	0.0105 ± 0.043	-0.0235 ± 0.0035	0.011 ± 0.023	0.0475 ± 0.061	0.056 ± 0.061	0.014 ± 0.078	0.009	-0.006 ± 0.0057	-0.012 ± 0.017	0.0305 ± 0.018	0.0225 ± 0.0064
BE3C:CD54/ICAM-1	-0.0075 ± 0.0021	0.005 ± 0.0042	-0.0045 ± 0.0021	0.002 ± 0.0028	-0.0055 ± 0.00071	-0.025 ± 0.017	0 ± 0.0014	0.007 ± 0.016	0 ± 0.013	-0.016 ± 0.011	0.006 ± 0.02	0.011 ± 0.011	-0.0035 ± 0.0092	0.011 ± 0.027	0.0085 ± 0.015	0.0055 ± 0.013
3C:Proliferation	0.004 ± 0.052	-0.0305 ± 0.0021	-0.0095 ± 0.05	-0.0165 ± 0.0064	-0.0115 ± 0.029	0.019 ± 0.016	0.024 ± 0.073	-0.051 ± 0.083	0.001 ± 0.027	-0.0465 ± 0.03	-0.163 ± 0.052	-0.034 ± 0.016	-0.0165 ± 0.00071	-0.039 ± 0.02	0 ± 0.016	0 ± 0.013
BF4T:CD54/ICAM-1	-0.0065 ± 0.015	-0.017 ± 0.0099	-0.021 ± 0.018	-0.007 ± 0.014	-0.019 ± 0.017	0.006 ± 0.021	-0.0045 ± 0.047	0.018 ± 0.027	-0.003 ± 0.0014	-0.0215 ± 0.019	-0.015 ± 0.0099	-0.005 ± 0.0099	-0.0065 ± 0.0064	-0.002 ± 0.0057	-0.0115 ± 0.021	-0.0095 ± 0.022
LPS:CD69	-0.019 ± 0.069	-0.0145 ± 0.08	-0.03 ± 0.0014	-0.0255 ± 0.016	-0.01 ± 0.0028	-0.001 ± 0.023	0.0035 ± 0.012	0.005 ± 0.027	-0.015 ± 0.0071	-0.015	-0.019 ± 0.0057	0.0005 ± 0.022	-0.003 ± 0.0014	0.012 ± 0.041	-0.0135 ± 0.011	-0.008 ± 0.014
SAg:PBMC Cytotoxicity	-0.0255 ± 0.018	0.0155 ± 0.013	0.0005 ± 0.052	0.026 ± 0.0042	0.0245 ± 0.012	-0.001 ± 0.013	-0.0055 ± 0.0092	0.009 ± 0.044	-0.016 ± 0.024	0.0085 ± 0.018	-0.033 ± 0.045	0.031 ± 0.021	-0.006	0.0205 ± 0.023	0.017 ± 0.025	0.0425 ± 0.00071
BE3C:CXCL10/IP-10	0.032 ± 0.031	0.022 ± 0.021	-0.008 ± 0.0085	0 ± 0.0028	-0.0015 ± 0.0064	-0.0125 ± 0.019	0.0035 ± 0.022	0.014 ± 0.025	0.018 ± 0.052	0.022 ± 0.033	0.004 ± 0.052	-0.007 ± 0.011	-0.0125 ± 0.016	0.002 ± 0.0099	0.0075 ± 0.0021	0 ± 0.017
